Test results from patent US4920231A, “Process of braking triflouromethyl compounds” (Roussel Uclaf, priority 1988, dated 1990).
In brackets after ≈: the same amount, converted by molar mass.

Assays:
Assay type in all cases: in vivo
[1] = system: house-fly; experiment: Study of lethal activity on the house-fly (topical application); details: four-day old female house-flies, topical 1 μl acetone solution on dorsal thorax, mortality at 24 hours; without synergist or with piperonyl butoxide (table does not say which)
Protocol: A. Study of lethal activity on the house-fly
The insects tested were four-day old female house-flies and the test was carried out by topical application of 1 μl of acetone solution on the dorsal thorax of the insects using an Arnold micromanipulator. 50 individuals per treatment were used and a mortality check was carried out 24 hours after treatment. The tests were carried out without a synergist or with the addition of piperonyl butoxide (10 parts of synergist per 1 part of test compound). The experimental results, given in the following table, are expressed in LD 50 (in nanograms) necessary to kill 50% of the insects: […]

[2] = system: Aphis cracivora; experiment: Study of the lethal effect on Aphis cracivora (contact-injection method, treated broad-bean leaf); details: 7-day old adults, contact with treated leaf for one hour, mortality after 24 hours
Protocol: B. Study of the lethal effect on Aphis cracivora
7-day old adults were used and 10 aphids per concentration used were employed. A contact-injection method was used and the treatment of a broad-bean leaf was carried out with a Fisher gun, the leaf being placed in a plastic Petri dish on a circle of damp paper. The treatment was carried out with 2 ml of acetone solution of the product under test (1 ml per side of leaf). The infestation by the insects was brought about after drying the leaf and the insects were kept in contact with the leaf for one hour. Insects were placed on untreated leaves and the mortality was checked after 24 hours.

[3] = system: Boophilus microplus females; experiment: Study of the activity on inhibition of the reproduction of Boophilus microplus ticks; details: for activity on inhibition of reproduction of Boophilus microplus ticks (conclusion): 100 to 0.19 ppm; for inhibition at 0.19 ppm / inhibition at 0.38 ppm / inhibition at 0.75 ppm / inhibition at 1.5 ppm / inhibition at 3.1 ppm / inhibition at 6.2 ppm / inhibition at 12.5 ppm / inhibition at 25 ppm / inhibition at 50 ppm / inhibition at 100 ppm: Rhipicephalus microplus, 5 min, females submerged for 5 minutes
Protocol: (§1) The substance under test was dissolved in a mixture of dimethylformamide, emulsifiers and Arcopal so as to obtain a concentrate emulsifying at 10%. This concentrate was diluted with water to obtain solutions of the desired concentrations of 100, 10 and 1 ppm. Using a spraying tower, the various solutions were sprayed over the larvae of tropical cattle ticks of Boophilus microplus type, and after 24 hours, the percentage of mortality was determined by counting the living and dead larvae. The results are as follows:
(b) Study of the activity on inhibition of the reproduction of Boophilus microplus ticks
Boophilus microplus females, ready to lay eggs, were submerged for 5 minutes in the solutions prepared above and then they were placed in a heated chamber to lay the eggs. […]

[4] = system: Boophilus microplus larvae; experiment: Study of the activity on Boophilus microplus larvae (spraying tower, % mortality); details: for activity on Boophilus microplus larvae (conclusion): 100, 10 and 1 ppm; for mortality at 1 ppm / mortality at 10 ppm / mortality at 100 ppm: Rhipicephalus microplus, in Bos taurus, larvae, after 24 hours
Protocol: C. Study of the acaricide activity in animals
(a) Study of the activity on Boophilus microplus larvae
as §1, with “larvae.” for “larvae. The results are as follows:”

Structure (SMILES) | LD 50 [1] [ng/insect] | LC50 [2] [µg/mL] | activity on inhibition of reproduction of Boophilus microplus ticks (conclusion) [3] | inhibition at 0.19 ppm [3] [%] | inhibition at 0.38 ppm [3] [%] | inhibition at 0.75 ppm [3] [%] | inhibition at 1.5 ppm [3] [%] | inhibition at 3.1 ppm [3] [%] | inhibition at 6.2 ppm [3] [%] | inhibition at 12.5 ppm [3] [%] | inhibition at 25 ppm [3] [%] | inhibition at 50 ppm [3] [%] | inhibition at 100 ppm [3] [%] | activity on Boophilus microplus larvae (conclusion) [4] | mortality at 1 ppm [4] [%] | mortality at 10 ppm [4] [%] | mortality at 100 ppm [4] [%]
C[C@@H](OC(=O)[C@@H]1[C@@H](/C=C(/c2ccc(Cl)cc2)C(F)(F)F)C1(C)C)c1cccc(Oc2ccccc2)n1 [Example 3, 1-(6-phenoxy-2-pyridyl)-ethyl [1R-[1α(R*), 3β]]2,2-dimethyl-3-[(ΔZ)-2-(4-chlorophenyl)-3,3,3-trifluoro-1-propenyl]-cyclopropane carboxylate] | 19.6 | 1.34 (≈ 2.6 µM) | remarkable activity | 100 | 100 | 100 | 100 | 100 | 100 | 100 | 100 | 100 | 100 | remarkable activity | 100 | 100 | 100
CC1(C)[C@H](/C=C(/c2ccc(Cl)cc2)C(F)(F)F)[C@H]1C(=O)O[C@H](C#N)c1ccc(F)c(Oc2ccccc2)c1 [Example 4, α-Cyano-4-fluoro-3-phenoxy-benzyl [1R-[1α(S*)-3β]-2,2-dimethyl-3-[(ΔZ) 2-(4-chlorophenyl)-3,3,3-trifluoro-1-propenyl]-cyclopropane carboxylate] | 5.3 | 0.6 (≈ 1.1 µM) | remarkable activity | 100 | 100 | 100 | 100 | 100 | 100 | 100 | 100 | 100 | 100 | remarkable activity | 100 | 100 | 100
CC(OC(=O)[C@@H]1[C@@H](/C=C(/c2ccc(Cl)cc2)C(F)(F)F)C1(C)C)c1cccc(Oc2ccccc2)n1 (stereo partly drawn) [Example 5, 1-(6-phenoxy-2-pyridyl)-ethyl [1R-(1α,(RS), 3β]] 2,2-dimethyl-3-[(ΔZ)-2-(4-chlorophenyl)-3,3,3-trifluoro-1-propenyl]-cyclopropane carboxylate] |  |  | remarkable activity |  | 85 | 100 | 100 | 100 | 100 | 100 | 100 | 100 | 100 | remarkable activity | 100 | 100 | 
